Patent US20260242356A1, “BICYCLIC HETEROCYCLIC AMIDE INHIBITORS OF NAv1.8 FOR THE TREATMENT OF PAIN” (priority 2022, published 2026)

Biological target: T1, human NaV sodium channel α-subunit NaV 1.8 (Homo sapiens, UniProt Q9Y5Y9)
T1 construct: transfected with the full-length cDNA coding for the appropriate human NaV sodium channel α-subunit NaV 1.8; expressed in transfected cells; host or cells: HEK293 cells
Assay: NaV inhibition assay, whole-cell patch-clamp (HEKA EPC 9 amplifier)
Type: cell-based
Method: Electrophysiology experiments were performed on Human Embryonic Kidney 293 cells (HEK) or Chinese hamster ovary cells (CHO) transfected with the full-length cDNA coding for the appropriate human NaV sodium channel α-subunit NaV 1.8. Similarly, experiments are performed on Human Embryonic Kidney 293 cells (HEK) or Chinese hamster ovary cells (CHO) transfected with the full-length cDNA coding for the appropriate human NaV sodium channel α-subunit, including NaV 1.7, NaV 1.6, NaV 1.5, and NaV 1.4.
Sodium currents were measured using the patch-clamp technique in the whole-cell configuration with a HEKA EPC 9 amplifier (HEKA Elektronik Dr. Schulze GmbH, Germany) or can be measured using an IonFlux 16 automated patch clamp system (Fluxion Biosciences, South San Francisco, USA) as previously described by Moran. See, Moran O, Picollo A, Conti F (2003) Tonic and phasic guanidinium toxin-block of skeletal muscle Na channels expressed in Mammalian cells, Biophys J 84(5):2999-3006. For manual patch-clamp experiments, borosilicate glass micropipettes (Sutter Instruments, Novato, CA) were pulled to a tip diameter yielding a resistance of 1.0-2.0 MΩ in the working solutions. The composition of intracellular solution was (in mM): CsF 125, EGTA 10, HEPES 10, NaCl 10, and the pH was adjusted to 7.2 with CsOH. The composition of extracellular solution was (in mM): NaCl 135, KCl 4.5, CaCl2 2, MgCl2 1, HEPES 10, and the pH was adjusted to 7.4 with NaOH. For human NaV 1.8, 0.3-1 μM tetrodotoxin (TTX) was added to the extracellular solution to inhibit native TTX-sensitive current. Peak currents were generally between 0.5-20 nA.
Lyophilized stock of each test article was stored at −20° C., solubilized in DMSO (maximum final concentration 1%) and diluted to the desired concentration with the external solution prior to recording. Current measurements were recorded under continuous perfusion, controlled by syringe pump addition.
The output of the EPC 9 patch-clamp amplifier was filtered with a built-in low-pass, four-pole Bessel filter having a cutoff frequency of 10 kHz and sampled at 20-50 kHz. For both manual and automated recordings, the membrane was kept at a holding potential of between −120 and −80 mV. Pulse stimulation and data acquisition were controlled with the Pulse software (HEKA Elektronik Dr. Schulze GmbH, Germany) or the IonFlux software (Fluxion Biosciences, South San Francisco, USA). All measurements were performed at room temperature (about 20-22° C.). Recordings were made at least 5 min after establishing the whole-cell and voltage-clamp configuration to allow for stabilization of the voltage-dependent properties of the channels. Currents were elicited by 10-50 ms step depolarizations from a holding potential to a value between −40 and +10 mV. Peak currents after channel activation were recorded. […] Data were fit to a four-parameter logistic equation with the Hill slope set to 1 to determine IC50 values and expressed as mean.
For Table 1 and Table 2, all data were measured in HEK cells. Column 1 provides IC50 data for NaV 1.8 as measured using the patch-clamp technique in the whole-cell configuration with a HEKA EPC 9 amplifier, where +++ indicates an IC50 of less than or equal to 20 nM, ++ indicates an IC50 of greater than 20 nM but less that or equal to 100 nM, and + indicates an IC50 of greater than 100 nM but less that or equal to […]. ND means not detectable. NT means not tested.

T1 sequence (Q9Y5Y9 whole entry): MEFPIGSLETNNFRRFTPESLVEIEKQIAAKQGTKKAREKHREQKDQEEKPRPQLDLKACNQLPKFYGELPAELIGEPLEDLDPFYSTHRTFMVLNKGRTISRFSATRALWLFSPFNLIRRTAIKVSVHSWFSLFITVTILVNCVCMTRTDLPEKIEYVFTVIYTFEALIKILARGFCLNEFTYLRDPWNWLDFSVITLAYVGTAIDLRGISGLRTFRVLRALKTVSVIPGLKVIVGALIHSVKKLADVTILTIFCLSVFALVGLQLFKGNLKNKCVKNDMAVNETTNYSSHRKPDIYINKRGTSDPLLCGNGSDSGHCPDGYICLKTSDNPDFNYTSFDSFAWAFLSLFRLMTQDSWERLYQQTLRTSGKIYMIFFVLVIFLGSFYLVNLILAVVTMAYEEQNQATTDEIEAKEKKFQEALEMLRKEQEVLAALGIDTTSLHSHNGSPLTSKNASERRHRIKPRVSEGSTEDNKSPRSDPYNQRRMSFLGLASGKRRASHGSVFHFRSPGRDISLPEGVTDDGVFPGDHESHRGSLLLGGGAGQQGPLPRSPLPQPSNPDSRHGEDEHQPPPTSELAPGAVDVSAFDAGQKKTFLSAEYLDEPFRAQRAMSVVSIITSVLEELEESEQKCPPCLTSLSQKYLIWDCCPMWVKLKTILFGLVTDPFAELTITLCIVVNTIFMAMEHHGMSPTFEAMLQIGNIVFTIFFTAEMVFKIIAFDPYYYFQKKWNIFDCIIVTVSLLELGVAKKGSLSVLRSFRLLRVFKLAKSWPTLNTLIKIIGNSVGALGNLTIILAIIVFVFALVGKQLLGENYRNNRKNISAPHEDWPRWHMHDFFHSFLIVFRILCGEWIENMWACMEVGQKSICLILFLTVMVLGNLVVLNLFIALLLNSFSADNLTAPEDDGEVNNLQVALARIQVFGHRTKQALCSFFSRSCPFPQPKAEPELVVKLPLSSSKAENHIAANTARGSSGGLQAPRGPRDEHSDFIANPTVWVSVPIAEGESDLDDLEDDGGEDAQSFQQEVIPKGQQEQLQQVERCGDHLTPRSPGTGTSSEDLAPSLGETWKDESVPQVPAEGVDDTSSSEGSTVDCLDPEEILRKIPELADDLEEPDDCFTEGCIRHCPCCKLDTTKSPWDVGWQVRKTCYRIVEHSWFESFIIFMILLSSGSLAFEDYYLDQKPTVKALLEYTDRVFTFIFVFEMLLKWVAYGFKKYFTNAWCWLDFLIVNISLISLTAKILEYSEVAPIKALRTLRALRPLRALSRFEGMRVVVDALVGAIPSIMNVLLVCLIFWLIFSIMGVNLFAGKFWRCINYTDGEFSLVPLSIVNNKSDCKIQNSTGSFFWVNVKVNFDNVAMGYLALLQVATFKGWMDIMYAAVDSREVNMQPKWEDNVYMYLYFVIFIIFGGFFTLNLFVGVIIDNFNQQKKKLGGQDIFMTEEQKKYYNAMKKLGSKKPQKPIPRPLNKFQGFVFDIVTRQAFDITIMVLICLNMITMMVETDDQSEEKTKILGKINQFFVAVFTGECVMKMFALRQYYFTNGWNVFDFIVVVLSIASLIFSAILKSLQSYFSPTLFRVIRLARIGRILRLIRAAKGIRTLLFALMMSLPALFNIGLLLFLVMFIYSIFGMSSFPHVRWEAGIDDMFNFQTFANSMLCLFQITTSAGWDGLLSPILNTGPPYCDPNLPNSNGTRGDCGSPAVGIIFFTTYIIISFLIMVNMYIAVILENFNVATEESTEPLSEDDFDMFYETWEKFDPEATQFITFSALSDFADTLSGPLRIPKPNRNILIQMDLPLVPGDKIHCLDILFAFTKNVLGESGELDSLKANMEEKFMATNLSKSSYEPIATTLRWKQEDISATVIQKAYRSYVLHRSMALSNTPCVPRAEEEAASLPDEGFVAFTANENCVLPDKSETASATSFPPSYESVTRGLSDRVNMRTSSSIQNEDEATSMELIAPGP

Q: `CS(=N)(=O)c1cccc(NC(=O)c2cc3ccccc3nc2N2CCCC(F)(F)CC2)c1` (stereo not drawn) [Compound 1, 2-(4,4-difluoroazepan-1-yl)-N-(3-(S-methylsulfonimidoyl)phenyl)quinoline-3-carboxamide] was tested. Which IC50 did it give?
A: < 20 nM

Q: With `NS(=O)(=O)c1cccc(NC(=O)c2cc3ccccc3nc2N2CCCC(F)(F)CC2)c1` [Compound 2, 2-(4,4-difluoroazepan-1-yl)-N-(3-sulfamoylphenyl)quinoline-3-carboxamide] as the compound, how does the IC50 read?
A: < 20 nM

Q: With `Nc1noc2ccc(NC(=O)c3cc4ccccc4nc3N3CCCC(F)(F)CC3)cc12` [Compound 3, N-(3-aminobenzo[d]isoxazol-5-yl)-2-(4,4-difluoroazepan-1-yl)quinoline-3-carboxamide] as the compound, how does the IC50 read?
A: < 20 nM

Q: Which IC50 does the source give for `NC(=O)c1cccc(NC(=O)c2cc3ccccc3nc2N2CCCC(F)(F)CC2)c1` [Compound 4, N-(3-carbamoylphenyl)-2-(4,4-difluoroazepan-1-yl)quinoline-3-carboxamide] here?
A: < 20 nM

Q: Which IC50 does the source give for `CC1CN(c2nc3ccccc3cc2C(=O)Nc2cccc(S(N)(=O)=O)c2)CCC1(F)F` (stereo not drawn) [Compound 5, 2-(4,4-difluoro-3-methylpiperidin-1-yl)-N-(3-sulfamoylphenyl)quinoline-3-carboxamide] here?
A: < 20 nM

Q: How did the IC50 turn out when `CS(=O)(=O)c1cccc(NC(=O)c2nc3ccccc3nc2N2CCCC(F)(F)CC2)c1` [Compound 6, 3-(4,4-difluoroazepan-1-yl)-N-(3-methanesulfonylphenyl)quinoxaline-2-carboxamide] was run?
A: < 20 nM

Q: Which IC50 does the source give for `CS(=N)(=O)c1cccc(NC(=O)c2nc3ccccc3nc2N2CCCC(F)(F)CC2)c1` (stereo not drawn) [Compound 7, 3-(4,4-difluoroazepan-1-yl)-N-(3-(S-methylsulfonimidoyl)phenyl)quinoxaline-2-carboxamide] here?
A: 20 to 100 nM

Q: For `NS(=O)(=O)c1cccc(NC(=O)c2nc3ccccc3nc2N2CCCC(F)(F)CC2)c1` [Compound 8, 3-(4,4-difluoroazepan-1-yl)-N-(3-sulfamoylphenyl)quinoxaline-2-carboxamide], which IC50 is on record?
A: 20 to 100 nM

Q: With `NS(=O)(=O)c1cccc(NC(=O)c2cc3cc(F)ccc3nc2N2CCCC(F)(F)CC2)c1` [Compound 9, 2-(4,4-difluoroazepan-1-yl)-6-fluoro-N-(3-sulfamoylphenyl)quinoline-3-carboxamide] as the compound, how does the IC50 read?
A: 20 to 100 nM

Q: For `NS(=O)(=O)c1cccc(NC(=O)c2cc3cc(F)c(F)cc3nc2N2CCCC(F)(F)CC2)c1` [Compound 10, 2-(4,4-difluoroazepan-1-yl)-6,7-difluoro-N-(3-sulfamoylphenyl)quinoline-3-carboxamide], which IC50 is on record?
A: 20 to 100 nM

Q: Which IC50 does the source give for `COc1ccc2nc(N3CCCC(F)(F)CC3)c(C(=O)Nc3cccc(S(N)(=O)=O)c3)cc2c1` [Compound 11, 2-(4,4-difluoroazepan-1-yl)-6-methoxy-N-(3-sulfamoylphenyl)quinoline-3-carboxamide] here?
A: < 20 nM

Q: How did the IC50 turn out when `NS(=O)(=O)c1cccc(NC(=O)c2cc3cc(Cl)ccc3nc2N2CCCC(F)(F)CC2)c1` [Compound 12, 6-chloro-2-(4,4-difluoroazepan-1-yl)-N-(3-sulfamoylphenyl)quinoline-3-carboxamide] was run?
A: < 20 nM

Q: How did the IC50 turn out when `NS(=O)(=O)c1cccc(NC(=O)c2cc3ccc(Cl)cc3nc2N2CCCC(F)(F)CC2)c1` [Compound 13, 7-chloro-2-(4,4-difluoroazepan-1-yl)-N-(3-sulfamoylphenyl)quinoline-3-carboxamide] was run?
A: 20 to 100 nM

Q: With `NC(=O)c1cccc(NC(=O)c2nc3ccccc3nc2N2CCCC(F)(F)CC2)c1` [Compound 14, N-(3-carbamoylphenyl)-3-(4,4-difluoroazepan-1-yl)quinoxaline-2-carboxamide] as the compound, how does the IC50 read?
A: 20 to 100 nM

Q: How did the IC50 turn out when `NS(=O)(=O)c1cccc(NC(=O)c2cc3ccncc3nc2N2CCCC(F)(F)CC2)c1` [Compound 15, 2-(4,4-difluoroazepan-1-yl)-N-(3-sulfamoylphenyl)-1,7-naphthyridine-3-carboxamide] was run?
A: < 20 nM

Q: How did the IC50 turn out when `COc1ccc2cc(C(=O)Nc3cccc(S(N)(=O)=O)c3)c(N3CCCC(F)(F)CC3)nc2c1` [Compound 16, 2-(4,4-difluoroazepan-1-yl)-7-methoxy-N-(3-sulfamoylphenyl)quinoline-3-carboxamide] was run?
A: 20 to 100 nM

Q: Which IC50 does the source give for `NS(=O)(=O)c1cccc(NC(=O)c2cc3cc(C(F)(F)F)ccc3nc2N2CCCC(F)(F)CC2)c1` [Compound 17] here?
A: < 20 nM

Q: How did the IC50 turn out when `NS(=O)(=O)c1cccc(NC(=O)c2cc3c(nc2N2CCCC(F)(F)CC2)CCCC3)c1` [Compound 18, 2-(4,4-difluoroazepan-1-yl)-N-(3-sulfamoylphenyl)-5,6,7,8-tetrahydroquinoline-3-carboxamide] was run?
A: 20 to 100 nM

Q: For `NS(=O)(=O)c1cccc(NC(=O)c2cc3cccnc3nc2N2CCCC(F)(F)CC2)c1` [Compound 19, 2-(4,4-difluoroazepan-1-yl)-N-(3-sulfamoylphenyl)-1,8-naphthyridine-3-carboxamide], which “NaV1.8 IC50 (nM)” value (HEK cells transfected with human NaV 1.8, whole-cell patch-clamp, 0.3-1 μM TTX in extracellular solution, room temperature) is on record?
A: + (+ indicates an IC50 of greater than 100 nM but less that or equal to 1.5 M)

Q: For `NS(=O)(=O)c1cccc(NC(=O)c2cc3cnccc3nc2N2CCCC(F)(F)CC2)c1` [Compound 20, 2-(4,4-difluoroazepan-1-yl)-N-(3-sulfamoylphenyl)-1,6-naphthyridine-3-carboxamide], which IC50 is on record?
A: 20 to 100 nM

Q: Which IC50 does the source give for `NS(=O)(=O)c1cccc(NC(=O)c2cc3ccc(F)cc3nc2N2CCCC(F)(F)CC2)c1` [Compound 28, 2-(4,4-difluoroazepan-1-yl)-7-fluoro-N-(3-sulfamoylphenyl)quinoline-3-carboxamide] here?
A: < 20 nM
